Patent US10016379B2, “Method of treatment for third spacing” (priority 2015, dated 2018)

Assays:
[1] = system: third spacing of fluid refractory to sulfa/sulfonamide; experiment: Example 2: patient case, sulfa/sulfonamide compound stopped and patient placed on ethacrynic acid; type: in vivo; settings: one patient; in one month; ethacrynic acid for a short period while stopping the sulfa/sulfonamide compound
From the text: A patient who suffered from a mental impairment but knew they were allergic to sulfa/sulfonamide compounds (their blood pressure fell), had clinical evidence of edema even though the patient was on a potent sulfa/sulfonamide medication. The patient was placed on ethacrynic acid for a short period of time while stopping the sulfa/sulfonamide compound and in one month, 40 pounds of fluid was removed. In this case, the patient not only had clinical evidence of edema, they also had third spacing of fluid refractory to sulfa/sulfonamide they were on. Unfortunately the patient was lost to follow up.

[2] = system: patient's asthma, fluid retention, fatigue, weight loss and photo dermatitis; experiment: Example 1: patient case, furosemide stopped and replaced with ethacrynic acid; type: in vivo; settings: one patient
From the text: In this case it is thought that decreasing the medications for allergies the patient was on may have contributed to the unmasking of an allergy to one of the components in the trade name compound.

## C=C(CC)C(=O)c1ccc(OCC(=O)O)c(Cl)c1Cl [ethacrynic acid]
[1]
  fluid removed: 40 pounds
[2]; after replacing furosemide with ethacrynic acid
  laboratory studies: resolution of pyuria
[2]; after stopping furosemide and replacing it with ethacrynic acid
  asthma, fluid retention, fatigue, weight loss and photo dermatitis: improve within one weeks-time
[2]; during ethacrynic acid treatment
  use of other medications for asthma, myalgia, dyspepsia and other symptoms: less use or even elimination of other medications
[2]; trade name compound
  tolerability (reason the patient could not continue the medication): adverse reaction to one of the constituents in the trade name compound
